From article PMC9369794 (Molecules, 2022)
Counter-ions that a name gives are not always drawn.

Assays:
[1] = Study of aggregation by UV-Vis spectrophotometry; type: physicochemical
From the text: It has been known for a long while that carotenoids or their derivatives can be prone to supramolecular organization in water or water-organic solvent mixtures. This behaviour is especially interesting because this higher organization can modulate or alter biological properties of carotenoids, as well [40]. A tendency to form supramolecular structures can be tested by recording the UV spectra in an organic solvent and increasing the ratio of water in the sample. […] We have some recent experience of such behaviour of carotenoid-flavonoid conjugates.
All of our adducts were tested with the method above using tetrahydrofurane (THF) or dimethylsulfoxide (DMSO) with increasing ratio of phosphate-buffered saline (PBS), which was the medium of the antioxidant measurements. […]
1. Study of Aggregation by UV-Vis Spectrophotometry
Starting from THF solutions: each conjugate was dissolved in freshly distilled THF and the solutions were diluted
either with THF or THF-PBS mixtures to obain final solutions of identical carotenoid concentration. […]
Figure S1. UV-spectra of 8’-apo-β-carotenol succinate ( 6) ( a) in THF and in THF-PBS mixtures ( 1:1 , 1:3); (b) in DMSO
Figure S2. UV-spectra of zeaxanthin bissuccinate ( 7) ( a) in THF and in THF-PBS mixtures ( 1:1 , 1:3); (b) in DMSO and
Figure S3. UV-spectra of zeaxanthin monosuccinate ( 11) ( a) in THF and in THF-PBS mixtures ( 1:1 , 1:3); (b) in DMSO […]

[2] = Hydrodynamic diameter and colloidal stability of aggregates by dynamic light scattering; type: physicochemical; conditions: for mean size (hydrodynamic diameter) / zeta potential: 37 °C; for PDI: sd^2/mean size^2
Description: In contrary, all spectra gave a hypsochromic shift and loss of fine-structure when the DMSO solutions were diluted with PBS, which refers to the formation of H-type (card-pack) aggregates (Figures S1–S12). Since DMSO-containing aqueous systems are more suitable for biological studies, we examined these solution by dynamic light scattering (DLS) spectroscopy to gain more information about the particles. The concentrations of the examined solutions were the same as used in the ABTS/TEAC measurements (0.3125–5.00 μM, see next section).
Size determination of aggregates and the colloidal stability of the sample dispersions were determined by dynamic light scattering measurements, where the hydrodynamic diameter of particles, and zeta potential values were collected. The number-weighted size distribution indicated one main peak in each case, the polydispersity index (PDI) was calculated as sd^2/mean size^2. For the particle size analysis Malvern Zetasizer Nano S instrument and for the zeta potential determination Malvern Zetasizer Nano Z instrument were used (Malvern Panalytical Ltd., Great Malvern, Worcestershire, UK). The measurements were carried out in autocorrelation mode, and the following parameters were kept constant: scattering angle 173°, attenuator 11 and its factor 0.0146, measurement position 4.65 mm. The concentrations of sample dispersions were between 0.3125 and 5 µM. The dispersion medium was PBS. Each samples was examined after 6 min incubation period at 37 °C.

[3] = TEAC assay using ABTS radical; conditions: 6 min, ratio of slopes to trolox (melatonin dissolved in EtOH); for TEAC from DMSO: stock in DMSO diluted with PBS pH 7.4, 37 °C; for TEAC from THF: stock in THF diluted with PBS pH 7.4, 37 °C
Description: This method uses a redox reaction between ABTS^•+ radical cation and the examined antioxidants, which act as the reducing agents. […] As the carotenoids and the conjugates are poorly soluble in water, they were dissolved first either in small amounts of freshly distilled tetrahydrofuran (THF) or in dimethylsulfoxide (DMSO), and these stock solutions were diluted with phosphate-buffered saline (PBS) to the final nominal concentration.
The TEAC values were determined in isotonic phosphate buffer of pH 7.4. The buffer solution was made by dissolving 9.55 g of DPBS powder in distilled water to form 1L of solution (composition: 0.138 M NaCl, 0.0027 M KCl, 0.0081 M Na2HPO4, 0.0015 M KH2PO4). The assay was performed according to a literature process with slight modifications. The ABTS^•+ radical cation was produced by reacting 7 mM 2,2′-azino-bis(3-ethylbenzothiazoline-6-sulfonic acid) and 2.45 mM potassium persulfate in water. The stock ABTS^•+ solution was prepared 12–16 h before the experiments, and stored at room temperature in dark. The absorbance of the ABTS^•+ solution was set to 0.70 ± 0.05 at 734 nm by a ca. 100-fold dilution with phosphate-buffered saline (PBS). […] The stock solutions were diluted with PBS such that equal amounts of the diluted solutions were added to the ABTS^•+ reagent to obtain final antioxidants concentrations of 0.3125, 0.625, 1.25, 2.50, 3.75, 5 μM, respectively. In the blank (0 μM), the solutions of the antioxidants were substituted with THF or DMSO.
The antioxidants were incubated with ABTS^•+ solution at 37 °C for 6 min. During the reaction of ABTS^•+ with the antioxidants the absorbance of the solution decreases. The percentage inhibition of absorbance at 734 nm was calculated as (A0 − Aantioxidant)/A0, where A0 is the absorbance of the ABTS^•+ solution and Aantioxidant is the absorbance measured after the addition of the antioxidant. The determinations were carried out at each concentration in triplicate. The calculated values were plotted against the final concentration of the antioxidants. The slopes of the curves were compared with that for trolox, the TEAC value is the ratio of the slopes for the antioxidant and for trolox.

[4] = FRAP assay for the antioxidant capacity; parameters: key to FRAP: slope of concentration-absorbance line divided by Trolox slope; conditions: stock in THF, acetate buffer pH 3.0, 37 °C, 15 min; ratio of slopes to trolox (melatonin in EtOH)
Description: In the FRAP method the antioxidant reduces Fe^3+ to Fe^2+ in an acidic medium. These experiments were performed in an acetate buffer of pH 3.0, the stock solutions of the examined antioxidants were prepared in THF. The antioxidant capacities were compared to that of Trolox as a standard, just like in the ABTS assays.
A modified literature process was used. The FRAP reagent should also be prepared freshly each day. 2,4,6-Tris(2-pyridyl)-s-triazin (TPTZ) was dissolved in a 200 mM HCl solution and diluted with water to get a final 40 mM HCl and 10 mM TPTZ concentration. For the preparation of the FRAP reagent 30 mL of 20 mM FeCl3 solution and 30 mL of 10 mM TPTZ solution were mixed, and 300 mL of 300 mM acetate buffer with pH 3.0 was added (a pH lower than usual was used to avoid the precipitation of the TPTZ). The FRAP reagent was incubated at 37 °C for 15 min. 150 μL of antioxidant dissolved in THF was mixed with 2.85 mL FRAP reagent solution, and incubated at 37 °C for 15 min in dark. Measurements were carried out at each antioxidant concentration (0, 7.5; 10; 12.5; 15; 17.5 μM final concentration) in triplicate. In the 0 μM solution the antioxidant solution was substituted with acetate buffer (pH 3.0). The FRAP was determined at 600 nm: the absorbance values were plotted as a function of concentration of the sample compounds and that of Trolox for the standard reference data. The FRAP values were calculated as in the ABTS assays, i.e., the slope of the concentration-absorbance lines for the carotenoid derivatives was divided by that for the trolox.

[5] = 0.3125 μM in PBS from DMSO stock
[6] = 0.625 μM in PBS from DMSO stock

Compound | TEAC from DMSO [3] | TEAC from THF [3] | melting point | FRAP [4] | further results
COc1ccc2[nH]cc(CCNC(=O)CNC(=O)CCC(=O)O[C@@H]3CC(C)=C(/C=C/C(C)=C/C=C/C(C)=C/C=C/C=C(C)/C=C/C=C(C)/C=C/C(=O)[C@]4(C)C[C@@H](OC(=O)CCC(=O)NCC(=O)NCCc5c[nH]c6ccc(OC)cc56)CC4(C)C)C(C)(C)C3)c2c1 [Compound 17, Capsanthin-dimelatonin conjugate] | 2.53 | 1.519 | 130 to 131 °C | 0.629 | type of aggregates formed ([1]; from THF:aqueous solutions): J-type (head-to-tail) aggregates; change of UV spectrum with increasing ratio of PBS ([1]; starting from THF solutions): bathochromic shift; mean size (hydrodynamic diameter) [2, 5]: 24.42 nm; zeta potential [2, 5]: −31.0 mV; PDI ([2]; 0.3125 μM in PBS): 0.0408; mean size (hydrodynamic diameter) [2, 6]: 43.47 nm; zeta potential [2, 6]: −22.9 mV; PDI ([2]; 0.625 μM in PBS): 0.1239; mean size (hydrodynamic diameter) ([2]; 1.25 μM in PBS from DMSO stock): 101.60 nm; zeta potential ([2]; 1.25 μM in PBS from DMSO stock): −21.1 mV; PDI ([2]; 1.25 μM in PBS): 0.1362; mean size (hydrodynamic diameter) ([2]; 2.5 μM in PBS from DMSO stock): 226.30 nm; zeta potential ([2]; 2.5 μM in PBS from DMSO stock): −22.2 mV; PDI ([2]; 2.5 μM in PBS): 0.1650; mean size (hydrodynamic diameter) ([2]; 3.75 μM in PBS from DMSO stock): 58.55 nm; zeta potential ([2]; 3.75 μM in PBS from DMSO stock): −27.5 mV; PDI ([2]; 3.75 μM in PBS): 0.1693; mean size (hydrodynamic diameter) ([2]; 5 μM in PBS from DMSO stock): 236.60 nm; zeta potential ([2]; 5 μM in PBS from DMSO stock): −27.0 mV; PDI ([2]; 5 μM in PBS): 0.1273
CC1=C(/C=C/C(C)=C/C=C/C(C)=C/C=C/C=C(C)/C=C/C=C(C)/C=C/C2=C(C)C[C@@H](OC(=O)CCC(=O)O)CC2(C)C)C(C)(C)CCC1 (as salt: succinate) [Compound 8, β-Cryptoxanthin succinate] |  |  | 142 to 143 °C |  | 
CC1=C(/C=C/C(C)=C/C=C/C(C)=C/C=C/C=C(C)/C=C/C=C(\C)C=O)C(C)(C)CCC1 [8'-Apo-β-carotenal, 8′-apo-β-carotenal, reference compound] | 1.19 | 0.953 |  | 0.443 | 
CC1=C(/C=C/C(C)=C/C=C/C(C)=C/C=C/C=C(C)/C=C/C=C(C)/C=C/C2=C(C)C[C@@H](O)CC2(C)C)C(C)(C)C[C@H](O)C1 [Compound 2, zeaxanthin, reference compound] | 2.70 | 2.016 |  | 0.351 | 
CC1=C(/C=C/C(C)=C/C=C/C(C)=C/C=C/C=C(C)/C=C/C=C(C)/C=C/C(=O)[C@]2(C)C[C@@H](O)CC2(C)C)C(C)(C)C[C@H](O)C1 [Compound 4, capsanthin, reference compound] | 0.62 | 1.036 |  | 0.197 | 
CC1=C(/C=C/C(C)=C/C=C/C(C)=C/C=C/C=C(C)/C=C/C=C(C)/C=C/C2=C(C)C[C@@H](O)CC2(C)C)C(C)(C)CCC1 [Compound 3, cryptoxanthin, reference compound] | 1.61 | 2.062 |  | 0.441 | 
CC1=C[C@H](O)CC(C)(C)[C@H]1/C=C/C(C)=C/C=C/C(C)=C/C=C/C=C(C)/C=C/C=C(C)/C=C/C1=C(C)C[C@@H](O)CC1(C)C [Compound 5, lutein, reference compound] | 1.02 | 1.571 |  | 0.161 | 
CC1=C[C@H](OC(=O)CCC(=O)O)CC(C)(C)[C@H]1/C=C/C(C)=C/C=C/C(C)=C/C=C/C=C(C)/C=C/C=C(C)/C=C/C1=C(C)C[C@@H](OC(=O)CCC(=O)O)CC1(C)C (as salt: succinate) [Compound 10, Lutein bissuccinate] |  |  | 148 to 149 °C |  | 
CC1=C(/C=C/C(C)=C/C=C/C(C)=C/C=C/C=C(C)/C=C/C=C(C)/C=C/C2=C(C)C[C@@H](OC(=O)CCC(=O)O)CC2(C)C)C(C)(C)C[C@H](OC(=O)CCC(=O)O)C1 (as salt: succinate) [Compound 7, Zeaxanthin bissuccinate] |  |  | 152 to 153 °C |  | 
CC1=C(/C=C/C(C)=C/C=C/C(C)=C/C=C/C=C(C)/C=C/C=C(\C)COC(=O)CCC(=O)O)C(C)(C)CCC1 (as salt: succinate) [Compound 6, 8′-Apo-β-carotenol succinate] |  |  | 123 to 124 °C |  | 
CC1=C(/C=C/C(C)=C/C=C/C(C)=C/C=C/C=C(C)/C=C/C=C(C)/C=C/C(=O)[C@]2(C)C[C@@H](OC(=O)CCC(=O)O)CC2(C)C)C(C)(C)C[C@H](OC(=O)CCC(=O)O)C1 (as salt: succinate) [Compound 9, Capsanthin bissuccinate] |  |  | 143 to 144 °C |  | 
